The text below walks through data of a melting point compilation (Tetko et al.; mined from patent text by program, amines drawn as free bases though some values may be those of a salt).

Compound `NC1=CC=C(c2ccccc2)CC1(Cl)C(O)(C1CC1)C1CC1` (stereo unspecified) yielded a melting point of 90 to 92 °C. The compound `N#Cc1c(Cl)ccc([N+](=O)[O-])c1N` returned a melting point of 181 to 184 °C. For `COc1ccnc(CCc2nc3cc(-c4ccc(S(=O)(=O)Nc5ccccc5)cc4)cnc3[nH]2)c1`, the melting point was 231 to 233 °C. The value for `NCC1Cc2cc(Cl)c3[nH]c(=O)ccc3c2O1` (stereo unspecified) was more than 300 °C; that for `CS(=O)(=O)c1ccc(C(=O)O)c(Cl)c1OC1COC1` was 180 to 183 °C; that for `C#Cc1cccc(OCc2ccc(OC)cc2)c1` was 92 to 95 °C.

`C=CCOC(=O)c1ccc(N=Cc2ccc3c(c2Cl)C(C)(C)CCC3(C)C)cc1` had a melting point of 80 °C. As to `CC1(CCl)COC(N)=N1` (stereo unspecified), the melting point lay within 61 to 62 °C.

In turn, `Cc1c(C)c(N2CCN(c3ccc(C(C)O)cc3)CC2)c(C)c2c1OC(C)(C)C2` (stereo unspecified) had a melting point of 133 to 136 °C. The value for `Cc1ccc(COc2cccnc2NC(=S)Nc2ccc(Cl)cc2)cc1` was 145 to 147 °C; that for `CCCCCCCCCCCCCCOc1ccc(NC(=O)Nc2cccc(CCBr)c2)cc1` was 164 to 169 °C; that for `Cc1nc(-c2ccccc2)nc(-c2cccc([N+](=O)[O-])c2)c1C(C)N1CCN(C)CC1` (stereo unspecified) was 130 to 131 °C.

Regarding `COc1cc(Nc2nccc(-c3cncs3)n2)cc(OC)c1OC`, the melting point was found to be 171 °C. The value for `COc1cc2c(cc1O)CCC1C2CCC2(C)C(=O)CCC12` (stereo unspecified) was 167 to 170 °C; that for `CN(C)C=CC(=O)c1cccnc1` was 66 to 67 °C; that for `Cc1cccc(NC(=O)NCC(=O)N(CC(=O)OC2(C)CCCC2)c2ccccc2)c1` was 160 °C.

Compound `O=c1[nH]c2cc(C(F)(F)F)ccc2n1CCN1CCN(C(c2ccccc2)c2ccccc2)CC1` had a melting point of 164 °C. The value for `CCCn1c(=O)c2[nH]c(/C=C/c3ccc(O)c(OC)c3)nc2n(CCC)c1=O` was 243 to 245 °C; that for `CC(=O)Oc1ccc(CC(=O)Nc2ncc(-c3ccc(OC(C)=O)cc3)nc2Cc2ccccc2)cc1` was 225 to 227 °C; that for `COc1ccc(C2CC3(C)C(CC45OCCOC43OCCO5)C3CC(C)C4(O)CCCCC4C23)cc1` (stereo unspecified) was 168 to 169 °C. Turning to `CCOCc1nc2c(N)nc3cc(-c4ccccc4)ccc3c2n1CC(C)(C)O`, the melting point was 211 to 212 °C.

As for `O=CNc1ccc(Cl)cc1C(=O)c1ccccc1Cl`, the melting point is 106 to 107 °C.

`CC(C)c1nc2cc(COc3ccc(CCCn4ccnc4)cc3)ccc2o1` had a melting point of 76 to 77 °C.

With `O=C(Nc1ncc(C(F)(F)F)o1)C1c2ccccc2Oc2ccccc21`, the melting point is 218 °C. As for `Cc1ccc2c(=O)nc(-c3cccc(CCC(=O)OC(C)(C)C)n3)sc2c1`, the figure is 135 °C. As for `CC1CCc2c(N3CCC(O)CC3)c(F)cc3c(=O)c(C(=O)O)cn1c23` (stereo unspecified), the figure is 244 to 247 °C; as for `CCn1cc(-c2ccc3nnn(Cc4ccc5ncccc5c4)c3n2)cn1`, 132 to 134 °C; as for `N#Cc1[nH]c(-c2c(Cl)cc(C(F)(F)F)cc2Cl)nc1Br`, 270 to 272 °C.

Regarding `Cc1c(C)c2c(c(C)c1NS(C)(=O)=O)CC(C)(C)O2`, the melting point was 159 to 160 °C.

In turn, `O=C(Nc1ccc(N2CC(F)(F)C2)nc1)c1cc2cc(C(F)(F)F)cnc2n1Cc1cccc(F)c1` came in with a melting point of 222 to 224 °C. The value for `COCCC(=O)N[C@H]1CC[C@H](CCN2CCC(c3cccc4c3CCO4)CC2)CC1` was 182 °C; that for `CSC(=S)Oc1cnc(C)c2c1COC(C)(C)O2` was 88 to 90 °C; that for `CCOC(=O)c1cc(Cl)n2c(C)nnc2n1` was 108 to 110 °C. Turning to `C=CCCC(C(=O)O)(C(=O)O)C(F)F`, the melting point lay in the range of 80 to 81 °C.

The compound `CS(=O)(=O)NCCc1ccc2c(c1)C(=O)c1ccccc1CO2` registered a melting point of 104 to 106 °C. The value for `O=c1c2cnc3ccccc3c2on1-c1ccccc1` was 163 °C. As for `COC(=O)c1ccc(NC(=O)C(F)(F)F)c(C(=O)OC)c1`, the figure is 239 °C. Compound `Cc1nn(-c2ccccn2)c2nc3ccccc3cc12` displayed a melting point of 153 to 154 °C.

The compound `CCOP(=O)(CCc1ccnc(-c2nc(=O)c3ccc(Cl)cc3s2)c1)OCC` gave a melting point of 138 to 139 °C.

As to `CN(C)c1ccc(C(=O)Nc2cn3cc(-n4ccnc4)ccc3n2)cc1`, the melting point lay within 247 to 248 °C.

`Cc1c(CCC(=O)O)n(Cc2ccc(-n3ccnc3)cc2)c2ccc(F)cc12`: the melting point amounted to 222 °C. The value for `COc1c(C(C)(C)C)cc(C(C)=O)c(O)c1Br` was 69 to 71 °C; that for `CN(C)c1c(Br)cc2c3c(cccc13)C(=O)N(O)C2=O` was 185 to 187 °C. As for `COc1cc(C)c(CNCCc2ccc(O)cc2)cc1O`, the figure is 122 to 124 °C. Turning to `O=C(CN1CCN(C(=O)Nc2ccc(C(F)(F)F)cc2)CC1)N1CCC2(CC1)Cn1cc([N+](=O)[O-])nc1O2`, the melting point lay in the range of 153 to 155 °C. As for `N#Cc1ccc(Cn2c(=O)[nH]c3cc(Cl)cc(Cl)c3c2=O)cc1`, the melting point lay within 317 to 320 °C.

For the compound `CCC(=C(c1ccccc1)c1ccc(C=CC(=O)N(CC)CC)cc1)c1ccccc1`, the melting point was 138 to 140 °C. As for `CC(C)(CCCC(=O)O)c1ccc(O)cc1`, the figure is 94 to 96 °C; as for `COC(=O)CCSCCOC1OC(COC(C)=O)C(OC(C)=O)C(OC(C)=O)C1OC(C)=O` (stereo unspecified), 81 to 82 °C. The value for `CCOC(=O)C(=O)c1cc(OC)c(OCOC)c2c(Cc3ccccc3)cccc12` was 70 to 72 °C; that for `Cc1cc(C)cc(Sc2c(C(C)C)c(=O)[nH]c(=O)n2CC#Cc2ccccc2)c1` was 113 to 115 °C; that for `COc1cc(C(=O)c2ncc3ccc(NC(=O)OC(C)(C)C)cn23)ccc1[N+](=O)[O-]` was 200 °C. As for `CC(=O)SCC(Cc1c(Cl)cccc1Cl)C(=O)NN1CCOCC1` (stereo unspecified), the figure is 175 °C; as for `C[C@H](C(=O)O)n1ncn(-c2ccc(OCC(F)(F)C(F)F)cc2)c1=O`, 162 to 165 °C; as for `CNCCOc1ccc(C(=O)NC)cc1`, 95 to 96 °C. `C#Cc1ccc2c(c1)C1(c3ccccc3-c3ccccc31)c1ccccc1-2` yielded a melting point of 169 to 170 °C. `CC(C)c1cc(C(=O)Nc2ccc(CCC(=O)O)cc2)oc1C(C)C`: the melting point lay in the range of 139 to 141 °C. Turning to `C=CCOc1cc(-n2c(OC)nc(C(F)(F)F)cc2=O)c(F)cc1Cl`, the melting point lay within 103 to 104 °C.

In turn, `CCCC[C@@H](O)[C@H](O)CCCC` showed a melting point of 48 to 49 °C.

The compound `CC(=O)Nc1ccc(-c2cc(C(=O)c3cc(-c4ccc(NC(C)=O)cc4)c(N4CCOCC4)s3)sc2N2CCOCC2)cc1` came in with a melting point of 140 to 142 °C. The compound `O=C(NC1CCCCC1)c1ccc(-c2ccc3nnn(Cc4ccc5ncccc5c4)c3n2)cc1F` gave a melting point of 172 to 175 °C. The value for `Cc1c(OCC(F)(F)F)ccnc1CSc1nc2ccccc2n1N` was 134 to 135 °C. In turn, `COc1ccc(CC[C@H]2CNCCN2)cc1` came in with a melting point of 125 to 130 °C. `CCN1C(=O)C(C)(C)C(=O)N(C)c2cc(CN(CCn3ccc4ccsc4c3=O)Cc3cnccc3C)ccc21`: the melting point is 138 to 142 °C. Consider `CC(=O)OCn1cc(Cl)c(-c2cc(Cl)cc(Cl)c2)n1`, for which the melting point turned out to be 95 °C. The value for `CC(=O)OCC(C(=O)OC(C)(C)C)C(=O)c1ccccc1` (stereo unspecified) was 72 to 74 °C.

In turn, `CC(C)(C)OC(=O)NC1C=CCC2C(=O)NC(=O)C12` (stereo unspecified) displayed a melting point of 158 to 160 °C. `COC(=O)c1cc(C2CO2)cc([N+](=O)[O-])c1` (stereo unspecified): the melting point was 59 to 60 °C. As for `CCn1nc(-c2ccccc2)c(C(C)=O)c(Nc2cccc3ccc(C)nc23)c1=O`, the figure is 172 to 173 °C; as for `Nc1ccc(C=Cc2ccc3ccccc3n2)cc1`, 178 to 180 °C; as for `NC(=O)C(c1ccc(Cl)cc1)c1ncc(C(F)(F)F)cc1Cl` (stereo unspecified), 135 to 136 °C. As for `COc1ccc(COCC(O)CO)cc1` (stereo unspecified), the figure is 51 to 53 °C; as for `CCOC(=O)c1c(Nc2ccc(Cl)cc2C)n[nH]c1C`, 156 to 187 °C; as for `O=C1CN(c2cccc(OCc3ccc(F)cc3)c2)NC(=O)N1`, 73 to 75 °C. `OC(c1cccc(OCc2ccc3ccccc3n2)c1)(c1nccs1)C(F)(F)F` (stereo unspecified) showed a melting point of 177 °C. Regarding `CC(C)(C)OC(=O)Nc1ccc(C#Cc2ccccc2Cl)cc1[N+](=O)[O-]`, the melting point fell in the range of 152 to 155 °C.

Take `CCOc1nn(-c2ccc(C(F)(F)F)cn2)cc1CCOc1ccccc1CC(=O)O`: the melting point lay in the range of 134 to 135 °C.

Compound `CCN(CC)C(C#N)c1ccc(OCc2ccccc2)cc1` (stereo unspecified) gave a melting point of 75 to 76 °C. `CNC(=O)Sc1ncc(Cl)cn1` yielded a melting point of 115 °C. The value for `COc1ccc(C2(O)CCS(=O)(=O)CC2)cc1OC1CCCC1` was 147 to 149 °C; that for `CC1(C)OC(=S)Nc2ccc(-c3ccc(C#N)s3)cc21` was 242 to 244 °C; that for `CCOC(=O)CC(=O)Nc1cccc(F)c1CO` was 91 °C. `N#Cc1ccc(OCc2ccsc2)cc1OC(C(=O)O)c1ccccc1F` (racemic) displayed a melting point of 159 to 161 °C.

With `O=C1CC(O)CN1S(=O)(=O)c1ccc(N2CCCCCC2)cc1` (stereo unspecified), the melting point lay in the range of 170 to 172 °C. As for `CCCCCCCCCCCCCCOc1ccc(CC(=O)Nc2ccccc2CBr)cc1`, the figure is 100 to 103 °C; as for `CC(O)c1cc2c(cn1)CCCC2` (stereo unspecified), 44 to 45 °C. Consider `CC(C)(C)N1C(=O)c2nc(Cl)cc(N)c2C1=O`, for which the melting point was 215 to 220 °C. As for `CNCc1ccc(-c2cc3ncnc(Nc4ccc5[nH]ccc5c4)c3s2)cc1`, the figure is 140 to 147 °C.

`Cc1ccc(NCCOS(C)(=O)=O)c([N+](=O)[O-])c1` had a melting point of 65 to 67 °C. The value for `O=C1OC(Cc2ccccc2)CN1C(=O)c1ccccc1` (stereo unspecified) was 109 to 110 °C; that for `Cc1c(Br)c(C#N)nn1C` was 92 to 94 °C.

As usually defined, the melting point is the temperature of the solid-liquid transition.
